The values that follow are results of earlier work, collected in patent US20140271726A1, “COMPOSITIONS AND METHODS FOR […] SUSCEPTIBILITY TO ANTIVIRAL AGENTS” (WISCONSIN ALUMNI RESEARCH FOUNDATION, priority 2013, published 2014).

The data set relates to HCV genotype 3. Particulars: genotype 3 patient, short duration monotherapy.

SMILES strings stand for the structures.

`C/C=C/C[C@@H](C)[C@@H](O)[C@H]1C(=O)N[C@@H](CC)C(=O)N(C)[C@H](C)C(=O)N(CC)[C@@H](C(C)C)C(=O)N[C@@H](C(C)C)C(=O)N(C)[C@@H](CC(C)C)C(=O)N[C@@H](C)C(=O)N[C@H](C)C(=O)N(C)[C@@H](CC(C)C)C(=O)N(C)[C@@H](CC(C)C)C(=O)N(C)[C@@H](C(C)C)C(=O)N1C` [alisprovir]: the clinical outcome was “cured”.
